From patent US20150239889A1, “PYRAZOLOPYRIMIDINE COMPOUND” (MITSUBISHI TANABE PHARMA CORPORATION, priority 2012, published 2015) come the findings set out here.

Molecules are shown by their SMILES.

Usually IC50 stands for the concentration needed to halve the response being measured. High values mean weaker potency, low ones greater potency.

Experiment [1] addresses T1, human HIF-PHD2 (Homo sapiens, UniProt Q9GZT9).
T1 construct: purchased CrystalGenomics Ltd
The experiment in a line: HIF-PHD inhibition assay (fluorescence polarization), human HIF-PHD2. The settings on record: 2-oxoglutaric acid 3.33 μmol/L. It counts as biochemical. As for the experimental part:
(§1) The activity of the test compound to inhibit human HIF-PHD2 and human HIF-PHD3 was determined.
(§2) The value of enzyme activity was calculated by subtracting the value of fluorescence polarization before addition of the enzyme from the value of fluorescence polarization after addition of enzyme (mP value).
(§3) FAM: 5′-fluoresceinamide ACA: aminocaproic acid
(In general: Fluorescence polarisation rises when a labelled molecule tumbles more slowly, as on binding a larger partner.)

In experiment [2] the target is T2, human HIF-PHD3 (Homo sapiens, UniProt Q9H6Z9).
T2 construct: purchased CrystalGenomics Ltd
T2 sequence (Q9H6Z9 whole entry): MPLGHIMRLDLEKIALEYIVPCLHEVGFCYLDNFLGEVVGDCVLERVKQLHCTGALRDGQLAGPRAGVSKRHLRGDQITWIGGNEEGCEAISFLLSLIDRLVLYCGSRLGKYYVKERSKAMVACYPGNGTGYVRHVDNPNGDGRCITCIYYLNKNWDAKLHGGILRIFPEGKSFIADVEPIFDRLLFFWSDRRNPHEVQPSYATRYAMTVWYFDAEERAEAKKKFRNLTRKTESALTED
The experiment in a line: HIF-PHD inhibition assay (fluorescence polarization), human HIF-PHD3. The settings on record: 2-oxoglutaric acid 166 μmol/L. The class given is biochemical. As for the experimental part: as §1, §2, §3

T1 sequence (Q9GZT9 2-426 limits assumed): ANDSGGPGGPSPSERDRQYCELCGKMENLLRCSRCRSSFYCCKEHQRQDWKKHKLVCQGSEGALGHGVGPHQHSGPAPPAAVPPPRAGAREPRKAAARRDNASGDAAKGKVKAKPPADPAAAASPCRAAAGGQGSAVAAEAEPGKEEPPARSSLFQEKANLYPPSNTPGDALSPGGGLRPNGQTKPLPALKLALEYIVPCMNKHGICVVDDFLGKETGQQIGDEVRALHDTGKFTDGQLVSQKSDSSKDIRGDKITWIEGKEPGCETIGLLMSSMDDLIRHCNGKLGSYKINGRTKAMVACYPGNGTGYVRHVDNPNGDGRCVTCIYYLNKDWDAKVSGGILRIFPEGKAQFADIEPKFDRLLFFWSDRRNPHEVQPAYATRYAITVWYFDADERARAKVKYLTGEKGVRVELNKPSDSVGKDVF

With `Cc1nn(CCC2CCCCC2)c2c(O)nc(-n3cc(C(=O)O)cn3)nc12` [Example 231], the IC50 stood at 21 nM in experiment [1] and 470 nM in experiment [2]. As for `C[C@@H](c1ccc(Cl)c(F)c1)n1ncc2nc(-n3cc(C(=O)O)cn3)nc(O)c21` [Example 271], the IC50 in experiment [1] stood at 12 nM; in experiment [2], 260 nM.

Consider `O=C(O)c1cnn(-c2nc(O)c3c(cnn3Cc3cc(F)c(-c4ccccc4F)cc3F)n2)c1` [Example 100], for which the values for the IC50 in experiment [1] and in experiment [2] were 16 nM and 89 nM, respectively.

With `Cc1ccc(C(C)n2ncc3nc(-n4cc(C(=O)O)cn4)nc(O)c32)cc1Cl` (single isomer, unassigned) [Example 298], the results for the IC50 in experiment [1] and in experiment [2] were 29 nM and 300 nM, respectively. The corresponding values for `O=C(O)c1cnn(-c2nc(O)c3c(cnn3C(c3ccc(F)cc3)C3CC3)n2)c1` (stereo not shown) [Example 366] are 120 nM and 540 nM. The like results for `C[C@@H](c1ccc(F)cc1Cl)n1cc2nc(-n3cc(C(=O)O)cn3)nc(O)c2n1` [Example 505] were, in that order, 51 nM and 440 nM. The corresponding values for `CC(C)(C)[C@H]1CC[C@@H](n2ncc3nc(-n4cc(C(=O)O)cn4)nc(O)c32)CC1` [Example 391] are 72 nM and 1100 nM. For the compound `CC1(C)CCCC1n1ncc2nc(-n3cc(C(=O)O)cn3)nc(O)c21` (stereo not shown) [Example 417], the IC50 in experiment [1] came to 70 nM; in experiment [2], 1300 nM.

For `C[C@@H](c1ccccc1Cl)n1ncc2nc(-n3cc(C(=O)O)cn3)nc(O)c21` [Example 257], the IC50 in experiment [1] is 200 nM; in experiment [2], 870 nM. The like results for `O=C(O)c1cnn(-c2nc(O)c3c(cnn3C3CCCCCCC3)n2)c1` [Example 394] were, in that order, 33 nM and 420 nM. With `Cc1cccc(OCCCn2ncc3nc(-n4cc(C(=O)O)cn4)nc(O)c32)c1C` [Example 180], the IC50 in experiment [1] was found to be 19 nM; in experiment [2] it was 170 nM. For the compound `Cc1ccc(C(C2CC2)n2ncc3nc(-n4cc(C(=O)O)cn4)nc(O)c32)cc1` (stereo not shown) [Example 368], the IC50 was determined as 72 nM in experiment [1] and 410 nM in experiment [2]. On to `C[C@@H](c1cc(C(F)(F)F)ccc1F)n1ncc2nc(-n3cc(C(=O)O)cn3)nc(O)c21` [Example 288], for which the IC50 in experiment [1] amounted to 180 nM; in experiment [2], 480 nM. Turning to `CCC(c1cc(C(F)(F)F)cc(C(F)(F)F)c1)n1ncc2nc(-n3cc(C(=O)O)cn3)nc(O)c21` (single isomer, unassigned) [Example 335], inhibition in experiment [1] was half-maximal at 76 nM (IC50). On to `Cc1cc(C(C2CC2)n2ncc3nc(-n4cc(C(=O)O)cn4)nc(O)c32)ccc1F` (single isomer, unassigned) [Example 377], for which the IC50 is 66 nM in experiment [1] and 340 nM in experiment [2]. The like results for `CC(c1ccc(Cl)c(C(F)(F)F)c1)n1ncc2nc(-n3cc(C(=O)O)cn3)nc(O)c21` (stereo not shown) [Example 315] were, in that order, 45 nM and 880 nM. The like results for `O=C(O)c1cnn(-c2nc(O)c3c(cnn3Cc3ccc(-c4ccc(Cl)cc4F)cc3)n2)c1` [Example 74] were, in that order, 20 nM and 72 nM. For the compound `CC(C)(Cn1ncc2nc(-n3cc(C(=O)O)cn3)nc(O)c21)c1ccc(Cl)c(Cl)c1` [Example 121], the IC50 was 210 nM in experiment [1] and 610 nM in experiment [2].

For the compound `Cc1cc(Cl)cc([C@H](C)n2ncc3nc(-n4cc(C(=O)O)cn4)nc(O)c32)c1` [Example 267], the IC50 in experiment [1] amounted to 86 nM; in experiment [2] it was 530 nM. For `Cc1ccc(Cl)cc1C(C)n1ncc2nc(-n3cc(C(=O)O)cn3)nc(O)c21` (single isomer, unassigned) [Example 312], the IC50 in experiment [1] was determined as 110 nM; in experiment [2], 510 nM. As for `O=C(O)c1cnn(-c2nc(O)c3c(cnn3C(c3cccc(Cl)c3)C3CC3)n2)c1` (stereo not shown) [Example 374], the half-inhibitory concentration (IC50) in experiment [1] is 51 nM; in experiment [2] it was 630 nM.

As to `O=C(O)c1cnn(-c2nc(O)c3c(cnn3Cc3ccc(-c4cccc(Cl)c4Cl)cc3)n2)c1` [Example 75], the results for the IC50 in experiment [1] and in experiment [2] were 20 nM and 120 nM, respectively. The corresponding values for `C[C@H](C1CCCCC1)n1ncc2nc(-n3cc(C(=O)O)cn3)nc(O)c21` [Example 145] are 30 nM and 1700 nM. The like results for `C[C@@H](c1ccc2c(c1)CCCC2)n1ncc2nc(-n3cc(C(=O)O)cn3)nc(O)c21` [Example 290] were, in that order, 38 nM and 400 nM. The corresponding values for `CCC(c1ccc(F)cc1)n1ncc2nc(-n3cc(C(=O)O)cn3)nc(O)c21` (single isomer, unassigned) [Example 325] are 36 nM and 630 nM. Take `O=C(O)c1cnn(-c2nc(O)c3c(n2)c(F)nn3C2CCCCCCC2)c1` [Example 482]: the IC50 in experiment [1] turned out to be 43 nM; in experiment [2], 1300 nM. The corresponding values for `O=C(O)c1cnn(-c2nc(O)c3c(cnn3C(c3ccc(Cl)cc3)C3CC3)n2)c1` (single isomer, unassigned) [Example 365] are 12 nM and 460 nM.

Consider `C[C@@H](c1ccc(C(F)(F)F)cc1)n1nc(C(F)(F)F)c2nc(-n3cc(C(=O)O)cn3)nc(O)c21` [Example 463], for which the values for the IC50 in experiment [1] and in experiment [2] were 65 nM and 930 nM, respectively. The corresponding values for `C[C@@H](c1ccc(F)c(Cl)c1)n1nc(C2CC2)c2nc(-n3cc(C(=O)O)cn3)nc(O)c21` [Example 462] are 81 nM and 990 nM. On to `C[C@H](c1cc(F)cc(C(F)(F)F)c1)n1ncc2nc(-n3cc(C(=O)O)cn3)nc(O)c21` [Example 273], for which the IC50 in experiment [1] stood at 92 nM; in experiment [2] it was 520 nM. In experiment [1], `CCC(c1ccc(C)c(Cl)c1)n1ncc2nc(-n3cc(C(=O)O)cn3)nc(O)c21` (stereo not shown) [Example 348] returned an IC50 of 110 nM.

With `Cc1ccc(C)c([C@H](C)n2ncc3nc(-n4cc(C(=O)O)cn4)nc(O)c32)c1` [Example 283], the IC50 in experiment [1] is 68 nM; in experiment [2] it was more than 3000 nM.

Turning to `O=C(O)c1cnn(-c2nc(O)c3c(cnn3[C@H]3CCN(c4ccc(C(F)(F)F)cc4)C3)n2)c1` [Example 437], the IC50 in experiment [1] was 2.5 nM; in experiment [2], 180 nM. The corresponding values for `Cc1nn(CC(C)(C)C)c2c(O)nc(-n3cc(C(=O)O)cn3)nc12` [Example 500] are more than 300 nM and 750 nM. The like results for `Cc1ccc(C(F)(F)F)cc1[C@@H](C)n1ncc2nc(-n3cc(C(=O)O)cn3)nc(O)c21` [Example 285] were, in that order, 76 nM and 870 nM.

For `CC1(C)CCC(n2nc(F)c3nc(-n4cc(C(=O)O)cn4)nc(O)c32)CC1` [Example 481], the IC50 in experiment [1] is 71 nM; in experiment [2] it was 480 nM. Take `C[C@@H](C1CCN(c2ccc(Cl)cc2)CC1)n1ncc2nc(-n3cc(C(=O)O)cn3)nc(O)c21` [Example 432]: the IC50 in experiment [1] came to 17 nM; in experiment [2], 270 nM. On to `C[C@@H](c1cc(F)ccc1F)n1nc(C2CC2)c2nc(-n3cc(C(=O)O)cn3)nc(O)c21` [Example 461], for which the IC50 was 230 nM in experiment [1] and 1600 nM in experiment [2]. Regarding `CC[C@@H](c1cccc(Cl)c1)n1ncc2nc(-n3cc(C(=O)O)cn3)nc(O)c21` [Example 343], the IC50 in experiment [1] worked out at 92 nM; in experiment [2] it was 610 nM. Consider `O=C(O)c1cnn(-c2nc(O)c3c(n2)c(F)nn3CC2CCCCCC2)c1` [Example 464], for which the results for the IC50 in experiment [1] and in experiment [2] were 17 nM and 440 nM, respectively.

For the compound `CC(C)c1nn(CC2CCCCC2)c2c(O)nc(-n3cc(C(=O)O)cn3)nc12` [Example 233], the IC50 was determined as 120 nM in experiment [1] and 2800 nM in experiment [2]. The corresponding values for `O=C(O)c1cnn(-c2nc(O)c3c(cnn3C[C@H]3CCN(c4ccc(Cl)cc4)C3)n2)c1` [Example 428] are 21 nM and 230 nM. `CC[C@@H](c1ccc(OC(F)(F)F)c(F)c1)n1ncc2nc(-n3cc(C(=O)O)cn3)nc(O)c21` [Example 352]: the half-maximal inhibitory concentration (IC50) came out at 32 nM in experiment [1] and 420 nM in experiment [2].

Turning to `Cc1nn([C@@H](C)c2ccc(F)c(F)c2)c2c(O)nc(-n3cc(C(=O)O)cn3)nc12` [Example 450], the IC50 in experiment [1] was found to be 64 nM; in experiment [2], 580 nM. The corresponding values for `CC(c1cc(Cl)cc(Cl)c1)n1ncc2nc(-n3cc(C(=O)O)cn3)nc(O)c21` (stereo not shown) [Example 307] are 45 nM and 500 nM.

`O=C(O)c1cnn(-c2nc(O)c3c(cnn3CC3(c4ccccc4)CCCC3)n2)c1` [Example 123]: the figures for the IC50 in experiment [1] and in experiment [2] were 130 nM and 580 nM, respectively. Compound `C[C@@H](c1c(F)cccc1F)n1ncc2nc(-n3cc(C(=O)O)cn3)nc(O)c21` [Example 256] yielded an IC50 in experiment [1] of 160 nM. Take `CC(c1cc(Cl)ccc1Cl)n1ncc2nc(-n3cc(C(=O)O)cn3)nc(O)c21` (racemic) [Example 264]: the IC50 in experiment [2] worked out at 490 nM. The same measure, in the same setting: under `O=C(O)c1cnn(-c2nc(O)c3c(cnn3CC3CCNCC3)n2)c1` [Example 169] stands 2100 nM. For the compound `C[C@@H](c1ccc(F)cc1F)n1nc(C2CC2)c2nc(-n3cc(C(=O)O)cn3)nc(O)c21` [Example 460], the IC50 in experiment [1] was 180 nM. In experiment [2], `C[C@@H](c1cc(Cl)ccc1Cl)n1ncc2nc(-n3cc(C(=O)O)cn3)[nH]c(=O)c21` [Example 263] displayed an IC50 of 610 nM. In turn, `O=C(O)c1cnn(-c2nc(O)c3c(cnn3Cc3ccc(N4CCCC4=O)cc3)n2)c1` [Example 419] displayed an IC50 in experiment [1] of 44 nM. On the same count and under the same terms, then `Cc1cc(Cl)cc([C@@H](C)n2ncc3nc(-n4cc(C(=O)O)cn4)nc(O)c32)c1` [Example 266], with 73 nM; and `O=C(O)c1cnn(-c2nc(O)c3c(n2)c(Cc2ccccc2)nn3CC2CCCCC2)c1` [Example 504], with 160 nM; and `O=C(O)c1cnn(-c2nc(O)c3c(cnn3CC3(c4ccccc4)CC3)n2)c1` [Example 122], with 74 nM. The same measure, in the same setting: then `C[C@@H](c1cc(F)ccc1F)n1ncc2nc(-n3cc(C(=O)O)cn3)nc(O)c21` [Example 261], with 72 nM.
